In one test the test system is organ of Corti explants. As to the kind of experiment: Hair cell number in organ of Corti explants from Atoh1-GFP mice. The class given is cell-based, mouse. As to conditions: for new hair cells in organ of Corti explants: P1-P2 explants, 48 h. An excerpt:
In this example, modulation of Pax2 and Sox2 expression in the differentiating inner ear cells included reducing Sox2 expression levels while increasing Pax2 expression level. Sox2 expression was modulated using DAFT (Jeon et al., j. Neurosci., 31:8351-8358 (2011)). Pax2 expression was modulated using FGF2 (Adamska et al., Mech. Dev., 109:303-313 (2001); Mansukhani et al., J. Cell. Biol., 168:1065-1076 (2005)). DAPT was used to decrease Sox2 and FGF2 to activate Pax2 expression in inner ear stein cells (see FIG. 12A). 4th-5th generation spheres or OC explants (P1-P2) were plated in 4-well plates (Greiner) on round 10 mm glass coverslips coated with poly-L-lysine (Cultrex) and attachment took place overnight in 10% FBS/DMEM-high glucose (GIBCO). Attachment was ensured with microscopic inspection and the medium was changed to serum-free DMEM-high glucose/F12 (mixed 1:1, GIBCO) and N2 and B27 (Invitrogen). Spheres were differentiated for 3, 7 or 10 d. For treatment, either DAFT (2.5 μM) or FGF (20 ng/ml) or control medium containing only DMSO (0.1%) were applied for 7d on spheres and 48 h on OC explants. Cells were harvested and further analyzed by immunohistochemistry. Axiovision 4.3 was used for data acquisition and the number of cells was quantified with Metamorph software. Cell counts were expressed as mean±standard deviation. An average of 1,000 cells were counted for spheres or 100 μm for OC explants. Origin software was used for statistical evaluation. Cell detection techniques are described in the Examples above.
Samples were obtained and detected using methods described above. Organ of Corti explants (P1-P2) from Atoh1-GFP mice were contacted with DAPT, FGF2, or a combination of both for 48 h. Hair cell number was then assessed.

The subject of another test is Atoh1. As to the kind of experiment: Atoh1 expression by quantitative RT-PCR in OC-1 cells. It counts as cell-based, mouse. As to conditions: OC-1 cells treated with HDAC inhibitors. As to the method: Atoh1 levels were measured in vitro in OC-1 cells or spheres by quantitative RT-PCR. For RT-PCR. total RNA was extracted from OC-1 cells or spheres treated with RAPT, FGF2, or DART and RNAi with the RiNeasy Maxi Kit (Qiagen) according to the manufacturer's instructions. RNA was denatured at 65° C. for 5 min. For reverse transcription, ImProm II (Promega) was used with random hexamers. Reverse transcription conditions were 25° C. for 5 min followed by 42° C. for 60 min. Reactions were terminated at 70° C. for 15 min. c: ANAs were mixed with Platinum quantitative PCR Supermix ROX with UDG (Invitrogen) and primers for Atoh1, Pax2 or Sox2 (ABI) according to the manufacturer's instructions. Gene expression was measured relative to 18S RNA. Samples were analyzed in 96 well plates in triplicate by quantitative PCR (Applied Biosystems 7900HT) using the following conditions: initial denaturation at 95° C. for 2 min, denaturation at 95° C. for 40 s and annealing/extension at 60′ C for 35 s for 45 cycles.
To address whether interaction with DNA-binding co-factors influenced bound histones at the Atoh1 locus, drugs that block histone modifications were used.

Turning to `C[C@H](NC(=O)Cc1cc(F)cc(F)c1)C(=O)N[C@H](C(=O)OC(C)(C)C)c1ccccc1` [DAPT], the “new hair cells in organ of Corti explants” value in the test on organ of Corti explants was “additional outer hair cells were seen in the apex”. Moreover, the “numbers of hair cells” value in the test on organ of Corti explants (postnatal explants, DAPT with control siRNA) is “Increased numbers of hair cells”.

Turning to `CCCC(CCC)C(=O)O` [VPA, valproic acid], the “expression of Atoh1, qRT-PCR relative to 18S RNA” value in the test with Atoh1 was “increased expression of Atoh1”.

For the compound “FGF2: growth factor used to activate Pax2 expression in inner ear stem cells; 20 ng/ml”, the “new hair cells in organ of Corti explants” value in the test with organ of Corti explants is “additional outer hair cells were seen in the apex”.

Consider `CC(/C=C/C(=O)NO)=C\[C@@H](C)C(=O)c1ccc(N(C)C)cc1` [TSA, Trichostatin A], for which, in the test on Atoh1, the “expression of Atoh1, qRT-PCR relative to 18S RNA” value is given as “increased expression of Atoh1”.

For the origin of these results see patent US12427128B2, “Sensorineural hair cell differentiation” (Massachusetts Eye and Ear Infirmary, priority 2014, dated 2025).
